Target: T1, full-length beta-Catenin (Uniprot ID P35222) (Homo sapiens, UniProt P35222)
T1 construct: 10 nM full-length beta-Catenin (Uniprot ID P35222)
T1 sequence (P35222 1-781): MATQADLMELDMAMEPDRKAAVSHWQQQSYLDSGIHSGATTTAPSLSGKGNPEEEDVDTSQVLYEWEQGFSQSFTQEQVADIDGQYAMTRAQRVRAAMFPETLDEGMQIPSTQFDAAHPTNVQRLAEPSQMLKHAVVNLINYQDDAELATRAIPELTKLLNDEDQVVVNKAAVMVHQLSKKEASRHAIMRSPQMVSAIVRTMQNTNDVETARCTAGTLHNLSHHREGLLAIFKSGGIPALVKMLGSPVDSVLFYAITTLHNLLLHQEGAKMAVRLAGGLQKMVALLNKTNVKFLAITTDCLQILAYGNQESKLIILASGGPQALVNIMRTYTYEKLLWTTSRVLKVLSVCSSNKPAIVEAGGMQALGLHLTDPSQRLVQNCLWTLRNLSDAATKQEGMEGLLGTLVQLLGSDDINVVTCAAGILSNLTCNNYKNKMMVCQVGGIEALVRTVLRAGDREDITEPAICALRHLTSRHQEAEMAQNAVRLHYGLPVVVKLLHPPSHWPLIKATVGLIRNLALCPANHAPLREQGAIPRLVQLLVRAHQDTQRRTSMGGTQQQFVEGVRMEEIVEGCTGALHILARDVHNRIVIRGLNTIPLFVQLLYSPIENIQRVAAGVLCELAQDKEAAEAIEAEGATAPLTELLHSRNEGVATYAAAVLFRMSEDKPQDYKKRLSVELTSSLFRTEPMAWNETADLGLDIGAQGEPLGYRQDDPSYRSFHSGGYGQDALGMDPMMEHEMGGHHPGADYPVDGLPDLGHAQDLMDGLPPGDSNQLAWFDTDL
Experiment: Fluorescence polarization IC50 (beta-catenin / 5FAM-TCF4 10-53 competition)
Assay type: binding
Details: fluorescence polarization; read-out: beta-Catenin FP IC50

Structure (SMILES)	IC50 [nM]
CC(=O)N1CCC[C@]12CC=CCCCC1(CCCC=CCCCOC(=O)N3CC[C@@](C(=O)N[C@@H](Cc4ccsc4)C(=O)N[C@@H](Cc4csc5ccccc45)C(=O)N[C@@H](CCC(N)=O)C(N)=O)(C3)NC(=O)[C@H](Cn3cc(CN4CCS(=O)(=O)CC4)nn3)NC(=O)[C@H](Cc3ccccc3)NC(=O)[C@H](C)NC(=O)[C@H](C)NC(=O)[C@H](CN(CC(=O)O)CC(F)(F)F)NC(=O)[C@H](CC(=O)O)NC1=O)NC(=O)[C@H](CC(C)(C)C)NC(=O)[C@H](CC(=O)O)NC2=O (stereo partly drawn) [I-1869, Ac-PL3-Asp-Npg-B5-Asp-TfeGA-Ala-Ala-Phe-[SO2MorphCH2]TriAzDap-PyrS2-3Thi-BztA-Gln-NH2]	12
CC(=O)N1CCC[C@]12CC=CCCCC1(CCCC=CCCCOC(=O)N3CC[C@@](C(=O)N[C@@H](Cc4ccccc4Cl)C(=O)N[C@@H](Cc4csc5ccccc45)C(=O)N[C@@H](CCC(N)=O)C(N)=O)(C3)NC(=O)[C@H](CO)NC(=O)[C@H](Cc3ccccc3)NC(=O)[C@H](CC(C)C)NC(=O)[C@H](CC(C)C)NC(=O)[C@H](CC(=O)O)NC(=O)[C@H](CC(=O)O)NC1=O)NC(=O)[C@H](Cc1ccccc1)NC(=O)[C@H](CC(=O)O)NC2=O (stereo partly drawn) [I-1155, Ac-PL3-Asp-Phe-B5-Asp-Asp-Leu-Leu-Phe-Ser-PyrS2-2C1F-BztA-Gln-NH2]	60
COc1cccc(C[C@H](NC(=O)[C@]23CCN(C2)C(=O)OCCCC=CCCCC2(CCCC=CC[C@]4(CCCN4C(C)=O)C(=O)N[C@@H](CC(N)=O)C(=O)N[C@@H](CC4CCCCC4)C(=O)N2)C(=O)N[C@@H](CC(=O)O)C(=O)N[C@@H](CCC(N)=O)C(=O)N[C@@H](CCCCNC(C)C)C(=O)N[C@@H](C)C(=O)N[C@@H](Cc2ccccc2)C(=O)N[C@@H](CC(N)=O)C(=O)N3)C(=O)N[C@@H](Cc2csc3ccccc23)C(=O)N[C@@H](CCO)C(N)=O)c1 (stereo partly drawn) [I-1930, Ac-PL3-Asn-Cha-B5-Asp-Gln-iPrLys-Ala-Phe-Asn-PyrS2-3OMeF-BztA-Hse-NH2]	1560
CC(=O)N1CCC[C@]12CC=CCCCC1(CCCC=CCCCCOC(=O)N3CC(C(=O)N[C@@H](Cc4ccsc4)C(=O)N[C@@H](Cc4csc5ccccc45)C(=O)N[C@@H](CCC(N)=O)C(N)=O)(C3)NC(=O)[C@H](CC(C)C)NC(=O)[C@H](Cc3ccccc3)NC(=O)[C@H](C)NC(=O)C(C)(C)NC(=O)[C@H](Cc3cccc(C(=O)O)c3)NC(=O)[C@H](CC(=O)O)NC1=O)NC(=O)[C@H](CC(C)(C)C)NC(=O)[C@H](CC(=O)O)NC2=O (stereo partly drawn) [I-2619, Ac-PL3-Asp-Npg-B5-Asp-3COOHF-Aib-Ala-Phe-Leu-Az3-3Thi-BztA-Gln-NH2]	36
CC(=O)N1CCC[C@]12CC=CCCC1(CCC=CCCCOC(=O)N3CC[C@@](C(=O)N[C@@H](Cc4ccsc4)C(=O)N[C@@H](Cc4csc5ccccc45)C(=O)N[C@@H](CCC(N)=O)C(N)=O)(C3)NC(=O)[C@H](CC(C)C)NC(=O)[C@H](Cc3ccccc3)NC(=O)[C@H](C)NC(=O)[C@H](C)NC(=O)[C@H](CC(=O)O)NC(=O)[C@H](CC(=O)O)NC1=O)NC(=O)[C@H](CC(C)(C)C)NC(=O)[C@H](CC(=O)O)NC2=O (stereo partly drawn) [I-1971, Ac-PL3-Asp-Npg-B4-Asp-Asp-Ala-Ala-Phe-Leu-PyrS2-3Thi-BztA-Gln-NH2]	475
CC(C)COC(=O)N1CCC[C@]12CC=CCCCC1(CCCC=CCCCOC(=O)N3CC[C@@](C(=O)N[C@@H](Cc4ccsc4)C(=O)N[C@@H](Cc4csc5ccccc45)C(=O)N[C@@H](Cc4c[nH]cn4)C(N)=O)(C3)NC(=O)[C@H](CCC(N)=O)NC(=O)[C@H](Cc3ccccc3)NC(=O)[C@H](C)NC(=O)[C@H](C)NC(=O)[C@H](CC(=O)O)NC(=O)[C@H](CC(=O)O)NC1=O)NC(=O)[C@H](CC(C)(C)C)NC(=O)[C@H](CC(=O)O)NC2=O (stereo partly drawn) [I-2364, CO2iBu-PL3-Asp-Npg-B5-Asp-Asp-Ala-Ala-Phe-Gln-PyrS2-3Thi-BztA-His-NH2]	116
CC(=O)N1CCC[C@]12CC=CCCCC1(CCCC=CCCCOC(=O)N3CC[C@@](C(=O)N[C@@H](Cc4ccsc4)C(=O)N[C@@H](Cc4csc5ccccc45)C(=O)N[C@@H](CCC(N)=O)C(N)=O)(C3)NC(=O)[C@H](CC(N)=O)NC(=O)[C@H](Cc3ccccc3)NC(=O)[C@H](C)NC(=O)[C@H](C)NC(=O)[C@H]([C@@H](C)O)NC(=O)[C@H](CC(N)=O)NC1=O)NC(=O)[C@H](CC(C)(C)C)NC(=O)[C@H](CN(CC(=O)O)CC(F)(F)F)NC2=O (stereo partly drawn) [I-2130, Ac-PL3-TfeGA-Npg-B5-Asn-Thr-Ala-Ala-Phe-Asn-PyrS2-3Thi-BztA-Gln-NH2]	4920
CC(C)C[C@H](NC(=O)[C@]12CCN(C1)C(=O)OCCCCCCCCC1(CCCCCCC(=O)N3CCC[C@@]3(C)C(=O)N[C@@H](CC(=O)O)C(=O)N1)C(=O)N[C@@H](C)C(=O)N[C@@H](CC(=O)O)C(=O)N[C@@H](CC(=O)O)C(=O)N[C@@H](C)C(=O)N[C@@H](C)C(=O)N[C@@H](Cc1ccccc1)C(=O)N2)C(=O)N[C@@H](Cc1ccsc1)C(=O)N[C@@H](Cc1csc2ccccc12)C(=O)N[C@@H](CCC(N)=O)C(N)=O (stereo partly drawn) [I-2608, 3butenyl-MePro-Asp-B5-Ala-Asp-Asp-Ala-Ala-Phe-PyrS2-Leu-3Thi-BztA-Gln-NH2]	251
CC(=O)N1CCC[C@]12CC=CCCCC1(CCCC=CCCCOC(=O)N3CC[C@@](C(=O)N[C@@H](Cc4ccsc4)C(=O)N[C@@H](Cc4csc5ccccc45)C(=O)N[C@@H](CCC(N)=O)C(N)=O)(C3)NC(=O)[C@H](CC(C)C)NC(=O)[C@H](Cc3ccccc3)NC(=O)[C@H](C)NC(=O)[C@H](C)NC(=O)[C@H](CCN(CC(=O)O)C(=O)CN3CCN(C)CC3)NC(=O)[C@H](CC(=O)O)NC1=O)NC(=O)[C@H](CC(C)(C)C)NC(=O)[C@H](CC(=O)O)NC2=O (stereo partly drawn) [I-2250, Ac-PL3-Asp-Npg-B5-Asp-[MePipAc]GAbu-Ala-Ala-Phe-Leu-PyrS2-3Thi-BztA-Gln-NH2]	12
CCC(C)N(CC(=O)O)C[C@@H]1NC(=O)[C@H](CC(=O)O)NC(=O)C2(CCCC=CCCCCCC[C@@](C)(C(=O)N[C@@H](Cc3ccsc3)C(=O)N[C@@H](Cc3csc4ccccc34)C(=O)N[C@@H](CCC(N)=O)C(N)=O)NC(=O)[C@H](CC(N)=O)NC(=O)[C@H](Cc3ccccc3)NC(=O)[C@H](C)NC(=O)[C@H](C)NC1=O)CCCC=CC[C@]1(CCCN1C(C)=O)C(=O)N[C@@H](CC(=O)O)C(=O)N[C@@H](CC(C)(C)C)C(=O)N2 (stereo partly drawn) [I-1626, Ac-PL3-Asp-Npg-B5-Asp-[sBu]GA-Ala-Ala-Phe-Asn-S8-3Thi-BztA-Gln-NH2]	721
CC(=O)N1CCC[C@]12CC=CCCCC1(CCCC=CCCCOC(=O)N3CC[C@@](C(=O)N[C@@H](Cc4ccsc4)C(=O)N[C@@H](Cc4csc5ccccc45)C(=O)N[C@@H](CCC(N)=O)C(N)=O)(C3)NC(=O)[C@H](CC(N)=O)NC(=O)[C@H](Cc3cccc(C(F)(F)F)c3)NC(=O)[C@H](C)NC(=O)[C@H](C)NC(=O)[C@H]([C@@H](C)O)NC(=O)[C@H](CC(N)=O)NC1=O)NC(=O)[C@H](CC(C)(C)C)NC(=O)[C@H](CC(=O)O)NC2=O (stereo partly drawn) [I-2009, Ac-PL3-Asp-Npg-B5-Asn-Thr-Ala-Ala-3F3MeF-Asn-PyrS2-3Thi-BztA-Gln-NH2]	1480
CC(=O)N1CCC[C@]12CC=CCCCC1(CCCC=CCCCOC(=O)N3CC[C@@](C(=O)N[C@@H](Cc4cccc(-c5ccccc5)c4)C(=O)N[C@@H](Cc4ccsc4)C(=O)N[C@@H](CCC(N)=O)C(N)=O)(C3)NC(=O)[C@H](CC(C)C)NC(=O)[C@H](Cc3ccccc3)NC(=O)[C@H](C)NC(=O)[C@H](C)NC(=O)[C@H](Cc3cccc(C(=O)O)c3)NC(=O)[C@H](CC(=O)O)NC1=O)NC(=O)[C@H](CC(C)(C)C)NC(=O)[C@H](CC(=O)O)NC2=O (stereo partly drawn) [I-2254, Ac-PL3-Asp-Npg-B5-Asp-3COOHF-Ala-Ala-Phe-Leu-PyrS2-[Ph]3SF-3Thi-Gln-NH2]	5790
CC(=O)N1CCC[C@]12CC=CCCCC1(CCCC=CCCOC(=O)N3CC[C@@](C(=O)N[C@@H](Cc4ccsc4)C(=O)N[C@@H](Cc4csc5ccccc45)C(=O)N[C@@H](CCC(N)=O)C(N)=O)(C3)NC(=O)[C@H](CC(N)=O)NC(=O)[C@H](Cc3ccccc3)NC(=O)[C@H](C)NC(=O)[C@H](C)NC(=O)[C@H]([C@@H](C)O)NC(=O)[C@H](CC(N)=O)NC1=O)NC(=O)[C@H](CC(C)(C)C)NC(=O)[C@H](CC(=O)O)NC2=O (stereo partly drawn) [I-2197, Ac-PL3-Asp-Npg-B5-Asn-Thr-Ala-Ala-Phe-Asn-PyrS1-3Thi-BztA-Gln-NH2]	2450
CC(=O)N1CCC[C@]12CC=CCCCC1(CCCC=CCCCOC(=O)N3CC[C@@](C(=O)N[C@@H](Cc4cccc(C(N)=O)c4)C(=O)N[C@@H](Cc4csc5ccccc45)C(=O)N[C@@H](CCC(N)=O)C(N)=O)(C3)NC(=O)[C@H](CC(C)C)NC(=O)[C@H](Cc3ccccc3)NC(=O)[C@H](C)NC(=O)[C@H](CCCCNC(C)C)NC(=O)[C@H](CCC(N)=O)NC(=O)[C@H](CC(=O)O)NC1=O)NC(=O)[C@H](CC1CCCCC1)NC(=O)[C@H](CC(N)=O)NC2=O (stereo partly drawn) [I-2163, Ac-PL3-Asn-Cha-B5-Asp-Gln-iPrLys-Ala-Phe-Leu-PyrS2-3cbmf-BztA-Gln-NH2]	3720

From US20240116985A1, “STAPLED PEPTIDES AND METHODS THEREOF” (priority 2020, published 2024)
